Values quoted from earlier work as cited in patent US8877698B2, “Method and composition for disinfecting hard surfaces” (priority 2001, dated 2014).

Test system: Mycobacterium tuberculosis var. bovis and poliovirus

Compound: CCO [ethanol]
- concentrations needed to kill resistant organisms: 70-90%
